# Entries after “also recorded” stand apart in the source; their conditions may differ.
# Experiments:
# [1] = system: 20×6 mm incisional wounds on the back; assay: Porcine skin wound study; assay type: in vivo, juvenile pigs
# Description: Overview of the Animal Study. In selecting the appropriate animal for this study, a pig was selected because of the anatomical similarities between pig skin and human skin. In fact, pig wound healing has been used in numerous studies to simulate human skin (Sullivan et al., Wound Repair Regen. 9: 66-76, 2001).
# Design of Study. In this study, juvenile pigs were oriented with twelve wound sites per animal—20×6 mm incisional wounds on the back—over the course of a six week study (see FIG. 2). Systemic relaxin was delivered via mini-pumps to achieve 20 ng/mL serum concentrations. Topical formulations were prepared by Dow Pharma, and consisted of propylene glycol and ethanol, which contributed to good long term stability of the therapeutic agent. Dosages consisting of placebo, 0.5 mg/mL (low dose), and 2.5 mg/mL (high dose) were prepared. The goals of the study were to assess the safety of topical relaxin on wound healing and to determine the efficacy of relaxin as a treatment for wound healing and/or scar formation. During the first week, irrigation was performed once daily. During weeks 2-3, topical formulation was applied twice daily, and during weeks […], topical formulation was applied once daily.
# Design of Drug. The study drug was relaxin (produced by recombinant technology). Recombinant relaxin is identical to the native human hormone H2 relaxin, produced using a recombinant single chain process. The active test article may be aseptically diluted to the desired concentration with the acetate diluent (20 mM sodium acetate, pH 5.0).
# Study Procedures. Referring to FIG. 3 which depicts the back of a pig with incisions according to the experimental design described herein at the completion of six weeks, the wound in Section 3 was irrigated with relaxin construct during the first week, and subsequently treated with high dose topical relaxin formulation during weeks 2-6 as described above. Sections 4, 5, and 6 received no irrigation during week 1. Section 4 was treated with placebo. Section 5 was treated with low dose topical formulation, and Section 6 was treated with high dose topical formulation.
# Cosmetic appearance of skin. Visual rankings of wound pictures were conducted by neutral observers who evaluated scabs during early wound healing (days 5-7) and scars at the end of the study (see FIG. 4). […] The results of this visual wound assessment determined that 89% of the time a relaxin treatment group was selected in the top three. Only 11% of the time, a group not treated with relaxin was selected in the top three.
# A cosmetic score was also determined by a professional dermatologist at weeks 2, 4, and 6. The cosmetic score has five components: (1) color—matching with surrounding skin; (2) texture—no hardness; (3) distortion—no distortion of nearby skin; (4) contour—flush with surrounding skin; (5) global—no hypertrophy or keloid formation. During this dermatological assessment, evaluation at time 2 weeks was obscured by scabs, so the data for cosmetic scores was collected from evaluation at weeks 4 and 6 (see FIG. 5). […] In the bottom profile, the scar is visible.
# Histological evaluation. A professional histopathologist evaluated the pathology of the treatments for such indications as granulation, inflammation, and necrosis. In judging granulation tissue, it is considered that early response to wound includes invasion of the site by fibroblasts, inflammatory cells, and new blood vessels. Over time, this resolves to more normal tissue as the site heals. Chronic inflammation characterized by the presence of macrophages, giant cells, lymphocytes, and PMNs indicated adverse reaction. Minor factors such as keratosis (formation of keratin layer outside the epidermis) and acanthosis (thickening of the epidermal layer) are also considered. […]
# [2] = Canine gingiva study: RLX migration and degradation after gingival injection (SELDI-TOF MS); assay type: in vivo, dog; details: for migration of RLX through the gingiva: after gingival injection; for concentration of H2 RLX detected in treated gingiva: site of injection
# Procedure: The aim of this study was to determine the rate of RLX migration and extent of degradation after gingival injections. […] Employing a dog model, RLX was administered and tissue punch biopsies were collected at the site of injection and 0.5, 1 and 2 cm from the site of injection. Tissue was collected at several time points including 1, 2 and 4 hrs after injection. Protein was extracted from the gingival biopsies and analysed via ProteinChip technology (Surface Enhanced Laser Desorption/Ionization Time-of-Flight Mass Spectrometry, SELDI-TOF MS), which combines two well-established methods of solid phase chromatography and TOF-MS into an integrated platform. ProteinChip arrays were coated with anti-H2 RLX Ab, allowing the specific capture of RLX and associated breakdown/modified products.
# Design of Drug. Gingival injections were administered (25 μg H2 RLX/100 μl, 41 μM) and tissue was collected at several positions including the site of injection and 0.5, 1 and 2 cm from the site of injection. Tissue was collected 1, 2 and 3 hrs after injection.
# a) Protein Extraction and Quantitation. Frozen gingival biopsies were homogenized in extraction buffer (10 μl/mg tissue) containing 10 mM Tris-HCl, 10 mM NaCl, 0.1% TFA and protease inhibitor (complete mini, Roche). The extract was centrifuged (6000×g) for 10 min and the supernatant was collected, aliquoted and stored at −80° C. Total protein concentration was determined using the Bradford assay. Protein concentrations ranged from 1.4 mg/ml to 2.8 mg/ml, all samples were standardized to 1.4 mg/ml in extraction buffer.
# b) SELDI-TOF MS analysis—Analysis of RLX treated gingiva on PG20 arrays. Anti-H2 RLX Ab (2 μl/0.25 mg/ml; Genentech) or control IgG (Ciphergen Biosystems) was applied to each spot of a PS20 array which had been pre-coated with Protein G (Ciphergen Biosystems). After antibody binding, the chip was washed once with PBS/0.5% Triton X-100 for 5 min with agitation (5 μl per spot), followed by two PBS washes. Dog gingiva extracts (3 μl/1.4 mg/ml) were applied to each spot and incubated for 4 hrs. Non-specifically bound proteins were removed by sequentially washing with PBS/0.5% Triton X-100, PBS and 1 mM HEPES, pH 7.2. The chips were air dried and 1 μl of 50% saturated sinapinic acid in 50% (v/v) acetonitrile, 0.5% trifluoroacetic acid was applied onto each spot twice, arrays were air dried between each application. Chips were subsequently analysed by SELDI-TOF MS (Ciphergen Biosystems) using the following settings, laser 220 and sensitivity 9.
# c) Generation of H2 RLX Std Curve on PG20 arrays. H2 RLX (batch number 11835-89) was spiked into control dog gingiva (1.4 mg/ml) at different concentrations, including 100 nM, 50 nM, 12.5 nM, 6.25 nM, 3.125 nM and 1.56 nM and analysed as described above.
# [3] = as above; assay type: in vivo, dog
# wounded sites = details: systemic relaxin, rats; cited from earlier work
# tooth movement = details: RLX via gingival injections, dog models; cited from earlier work
# [4] = systemic relaxin vs no systemic relaxin
# [5] = systemic relaxin, after six weeks, blinded histopathology
substance,measurement,setting,value
relaxin,blood vessels in the wound site,[1]; after about six weeks of treatment,overall reduction
same,relaxin treatment group selected in the top three in visual wound assessment,[1]; blinded neutral observers ranking best three of six groups of wound pictures,89 % of the time
same,adverse effects / tolerability over dose range,[1]; dose range 10-960 μg/kg/day,no relevant adverse effects; also recorded: well-tolerated
same,wound healing / cosmetic ranking with irrigation relaxin treatment versus topical only,[1]; irrigation week 1 then high dose topical weeks 2-6,particularly efficacious; also recorded: ranked higher overall
same,wound healing with topical-only relaxin compared to placebo,"[1]; low dose 0.5 mg/mL and high dose 2.5 mg/mL topical formulation, six weeks",improved wound healing
same,adverse effects associated with relaxin treatment,"[1]; pig, in vivo",no adverse effects
same,necrosis or inflammation associated with relaxin treatment,"[1]; pig, in vivo",no necrosis or inflammation
same,scarring on histopathological slide,"[1]; relaxin treatment, six weeks, no relaxin: severe scarring",mild scarring
same,wound healing after systemic treatment compared to topical administration,[1]; some indications,better wound healing
same,"collagen organization (objective collagen scoring, red pixel ratio)",[1]; [4],significantly better
same,composite wound healing score (three point collagen scale),[1]; [4],significantly improved
same,wound appearance versus control pig,"[1]; systemic relaxin, after day six","healed faster, better"
same,chronic inflammation in wound sites,[1]; [5],reduces; also recorded: significantly reduced
same,granulation tissue in wound sites,[1]; [5],reduces; also recorded: significantly reduced
same,scar visibility at wound site,"[1]; systemic relaxin, six weeks of treatment, vs placebo (red scar visible)",invisible; also recorded: no scar was visible
same,RLX detection 0.5 cm from the site of injection,[2]; 1 hr time point,detected
same,RLX detection 1 cm from the site of injection,[2]; 1 hr time point,not detected
same,RLX detection 2 cm from the site of injection,[2]; 1 hr time point,not detected
same,migration of RLX through the gingiva,[2],stayed close to the injection site
same,migration of RLX through the gingiva,[2]; listed as RLX,stayed close to the injection site; also recorded: limited migration
same,concentration of H2 RLX detected in treated gingiva,[2]; 1 hr after gingival injection of 25 μg H2 RLX/100 μl,90 nM
same,concentration of H2 RLX detected in treated gingiva,[2]; 2 hrs after gingival injection of 25 μg H2 RLX/100 μl,78 nM
same,RLX detection at the remaining time points,[3]; 2 and 4 hrs,only detected at the site of injection
same,concentration of H2 RLX detected in treated gingiva,"[3]; site of injection, 4 hrs after gingival injection of 25 μg H2 RLX/100 μl",21 nM
same,VEGF and bFGF transcripts,wounded sites,upregulation
same,new blood vessel formation selectively at wounded sites,wounded sites,increased
same,relapse,tooth movement,prevent relapse
same,tooth movement,tooth movement,speed tooth movement

# Reference: patent US20110092439A1, “METHOD OF PROMOTING WOUND HEALING” (priority 2008, published 2011)
